Experimental findings from US8975417B2, “Pyrazolopyrrolidine derivatives and their use in the treatment of disease” (Novartis AG, priority 2013, dated 2015) are described below.

Bounds are passed on as bounds.

One experiment deals with His-Brd4(44-477) (Homo sapiens (Human), UniProt O60885). Nature of the experiment: TR-FRET in-vitro binding assay for BRD4. The conditions noted are these: biochemical. The procedure, abridged:
(§1)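 Assay buffer HEPES pH 7.5/NaCl/Tween20/BSA; protein solution 45 nM, peptide solution 60 nM acetyl-H4 (AcK5,8,12,16). Incubated 30 °C for 35 min; Eu-anti-His6 and SA-APC detection, TR-FRET read.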
Background: Time-resolved FRET reads energy transfer from a long-lived donor to a nearby acceptor.

Another experiment addresses His-Brd2(60-472) (Homo sapiens (Human), UniProt P25440). Nature of the experiment: TR-FRET in-vitro binding assay for BRD2. Conditions: biochemical. The procedure, abridged:
as §1

Another experiment concerns the target His-Brd3(20-477) (Homo sapiens (Human), UniProt Q15059). The experiment can be described thus: TR-FRET in-vitro binding assay for BRD3. Conditions: biochemical. The procedure, abridged: as §1
The next experiment deals with MV-4-11 cells. Nature of the experiment: Cell growth inhibition assay (CellTiter-Glo), MV-4-11. The experiment is classed as cell-based. Conditions: Homo sapiens, MV4-11, read-out: MV-4-11 TGI. The procedure, abridged:
(§2)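 Dose-response over 3-fold dilutions from 10 μM; 0.1% DMSO control. Endpoint: CellTiter-Glo ATP signal, background-subtracted and day 0-corrected.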
Background: Cellular ATP, detected with luciferase, serves as a proxy for viable cell number.

The next experiment relates to THP-1 cells. Nature of the experiment: Cell growth inhibition assay (CellTiter-Glo), THP-1. The class given is cell-based. The conditions noted are these: Homo sapiens, read-out: THP-1 TGI. The procedure, abridged: as §2
A further experiment concerns K-562 cells. Nature of the experiment: Cell growth inhibition assay (CellTiter-Glo), K-562. Conditions: Homo sapiens, K562, read-out: K-562 TGI. The class given is cell-based, human. Summed up:
as §2

Experiment [1] deals with nuclear BRD4-NUT foci in HCC2494 NUT midline carcinoma cells (Homo sapiens (Human), UniProt O60885+Q86Y26). The experiment can be described thus: Nut-foci formation assay. The experiment is classed as cell-based. The conditions noted are these: 24 hours, read-out: HCS Brd4-NUT IC50. The procedure:
HCC2494 NUT midline carcinoma cells (expressing BRD4-NUT-fusion) were obtained from the University of Texas Southwestern and cultured in RPMI-1640 medium containing 10% Foetal Calf Serum at 37° C. in a humidified 5% CO2 incubator.
Compound-mediated inhibition of BRD4 activity was monitored by quantification of the number and intensity of nuclear BRD4-NUT foci using automated immunofluorescence microscopy. Briefly, 5000 cells in 20 μL fresh medium were seeded into Poly-D-Lysine-precoated 384-well plates and incubated overnight at 37° C. and 5% CO2, followed by addition of 5 μl medium containing compound dilutions at 5-fold their final intended concentration. Dose-response effects were assessed by 3-fold serial dilutions of the test compound, starting at 10 μM. Following incubation of the cells for 24 hours at 37° C. and 5% CO2, the cells were fixed by incubation with 3.7% formaldehyde for 10 min, followed by immunofluorescence staining using rabbit anti-NUT (Cell Signaling Technologies, Cat#3625) as primary, and AlexaFluor488-labeled goat anti-rabbit (Invitrogen, Cat#A11008) as secondary antibody (latter complemented with 1 μg/mL Hoechst33342 as DNA dye). Assay plates were imaged using the appropriate filter sets on the Cellomics VTi automated fluorescence microscopy platform (ThermoFisher Scientific) and the population average of the number of NUT-foci per nucleus is quantified using the Cellomics Spot Detection BioApplication image analysis algorithm (ThermoFisher Scientific). The effect of a particular test compound concentration on NUT-foci number and intensity is expressed as percentage of the value obtained for cells treated with vehicle only (DMSO, 0.1% final concentration), which was set as 100. Compound concentrations leading to half-maximal (IC50) inhibition of the aforementioned readout parameters were determined using standard four parameter curve fitting.

Sequence of His-Brd2(60-472) (P25440 60-472): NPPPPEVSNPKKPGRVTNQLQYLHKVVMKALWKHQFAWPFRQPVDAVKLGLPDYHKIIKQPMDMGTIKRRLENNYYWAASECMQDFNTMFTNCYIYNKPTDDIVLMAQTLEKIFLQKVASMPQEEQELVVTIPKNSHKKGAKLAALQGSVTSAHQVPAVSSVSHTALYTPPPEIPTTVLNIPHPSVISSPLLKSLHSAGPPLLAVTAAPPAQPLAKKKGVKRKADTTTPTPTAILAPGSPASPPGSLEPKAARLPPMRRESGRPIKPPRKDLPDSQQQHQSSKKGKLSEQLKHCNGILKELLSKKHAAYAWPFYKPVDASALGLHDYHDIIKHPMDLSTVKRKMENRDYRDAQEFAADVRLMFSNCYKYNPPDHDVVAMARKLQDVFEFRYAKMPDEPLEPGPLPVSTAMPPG
Sequence of His-Brd3(20-477) (Q15059 20-477): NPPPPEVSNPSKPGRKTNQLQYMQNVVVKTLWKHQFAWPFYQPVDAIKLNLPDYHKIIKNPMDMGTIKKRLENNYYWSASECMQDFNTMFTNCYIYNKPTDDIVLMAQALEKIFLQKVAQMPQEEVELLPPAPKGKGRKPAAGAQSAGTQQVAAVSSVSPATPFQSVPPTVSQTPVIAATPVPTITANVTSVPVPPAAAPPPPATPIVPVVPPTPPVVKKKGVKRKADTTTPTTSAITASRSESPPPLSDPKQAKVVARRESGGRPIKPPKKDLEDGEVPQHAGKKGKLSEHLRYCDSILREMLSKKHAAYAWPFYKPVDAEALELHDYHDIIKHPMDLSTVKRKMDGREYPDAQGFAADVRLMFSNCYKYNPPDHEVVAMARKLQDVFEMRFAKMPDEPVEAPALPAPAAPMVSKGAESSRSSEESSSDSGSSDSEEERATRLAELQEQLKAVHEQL

In general, IC50 refers to the point on the concentration scale where inhibition reaches its midpoint. With `Cc1c2c(nn1C1CC1)C(=O)N(c1cc(Cl)c(=O)n(C)c1)[C@@H]2c1ccc(Cl)cc1` [Example 19, (R)-5-(5-chloro-1-methyl-6-oxo-1,6-dihydropyridin-3-yl)-4-(4-chlorophenyl)-2-cyclopropyl-3-methyl-4,5-dihydropyrrolo[3,4-c]pyrazol-6(2H)-one], the IC50 on His-Brd4(44-477) was 0.073 µM; on His-Brd2(60-472), 0.078 µM; at His-Brd3(20-477), 0.065 µM; in experiment [1], 0.118 µM. Besides, the IC (total growth inhibition) in the experiment with MV-4-11 cells is 0.043 µM; in the experiment on THP-1 cells, 0.125 µM; in the experiment with K-562 cells, over 10 µM.

On to `Cc1cc(N2C(=O)c3nn(C4COC4)c(C)c3C2c2ccc(Cl)cc2)cn(C)c1=O` (stereo not shown) [Example 134, 4-(4-chlorophenyl)-5-(1,5-dimethyl-6-oxo-1,6-dihydropyridin-3-yl)-3-methyl-2-(oxetan-3-yl)-4,5-dihydropyrrolo[3,4-c]pyrazol-6(2H)-one], for which the IC50 at His-Brd4(44-477) worked out at 0.16 µM; at His-Brd2(60-472), 0.19 µM; on His-Brd3(20-477), 0.13 µM; in experiment [1], 0.0922 µM. The IC (total growth inhibition) is 0.187 µM in the experiment with MV-4-11 cells, 0.291 µM with THP-1 cells and over 10 µM in the experiment with K-562 cells.

In the case of `Cc1cc(N2C(=O)c3nn(C4CN(C)C4)c(C)c3C2c2ccc(Cl)cc2)cn(C)c1=O` (stereo not shown) [Example 139, 4-(4-chlorophenyl)-5-(1,5-dimethyl-6-oxo-1,6-dihydropyridin-3-yl)-3-methyl-2-(1-methylazetidin-3-yl)-4,5-dihydropyrrolo[3,4-c]pyrazol-6(2H)-one], the IC50 on His-Brd4(44-477) was 0.19 µM; at His-Brd2(60-472) it was 0.16 µM; on His-Brd3(20-477) it was 0.12 µM; in experiment [1], 0.366 µM. Further, the IC (total growth inhibition) was 0.107 µM in the experiment on MV-4-11 cells, 0.399 µM in the experiment with THP-1 cells and over 10 µM in the experiment with K-562 cells.

Take `CNC(=O)n1nc2c(c1C)C(c1ccc(Cl)cc1)N(c1cc(C)c(=O)n(C)c1)C2=O` (stereo not shown) [Example 144, 4-(4-chlorophenyl)-5-(1,5-dimethyl-6-oxo-1,6-dihydropyridin-3-yl)-N,3-dimethyl-6-oxo-5,6-dihydropyrrolo[3,4-c]pyrazole-2(4H)-carboxamide]: the IC50 at His-Brd4(44-477) was 0.15 µM; at His-Brd2(60-472) it was 0.16 µM; on His-Brd3(20-477) it was 0.14 µM; in experiment [1] it was 0.134 µM. Besides, the IC (total growth inhibition) was 0.107 µM with MV-4-11 cells, 0.361 µM with THP-1 cells and over 10 µM with K-562 cells.

`CNC(=O)n1nc2c(c1C)C(c1ccc(Cl)cc1)N(c1cc(C)c3nnc(C)n3c1)C2=O` (stereo not shown) [Example 146, 4-(4-chlorophenyl)-5-(3,8-dimethyl-[1,2,4]triazolo[4,3-a]pyridin-6-yl)-N,3-dimethyl-6-oxo-5,6-dihydropyrrolo[3,4-c]pyrazole-2(4H)-carboxamide]: the IC50 on His-Brd4(44-477) was determined as 0.15 µM; on His-Brd2(60-472), 0.19 µM; on His-Brd3(20-477), 0.2 µM; in experiment [1] it was 0.091 µM. The IC (total growth inhibition) in the experiment on MV-4-11 cells was 0.0546 µM; with THP-1 cells it was 0.283 µM; in the experiment with K-562 cells it was over 10 µM.

Regarding `CCc1nn(C(=O)N(C)C)c2c1C(c1ccc(Cl)cc1)N(c1cc(C)c(=O)n(C)c1)C2=O` (stereo not shown) [Example 147, 4-(4-chlorophenyl)-5-(1,5-dimethyl-6-oxo-1,6-dihydropyridin-3-yl)-3-ethyl-N,N-dimethyl-6-oxo-5,6-dihydropyrrolo[3,4-c]pyrazole-1(4H)-carboxamide], the IC50 amounted to 0.13 µM at His-Brd4(44-477), 0.14 µM at His-Brd2(60-472), 0.12 µM at His-Brd3(20-477) and 0.0731 µM in experiment [1]. In addition, the IC (total growth inhibition) with MV-4-11 cells was 0.1 µM; in the experiment on THP-1 cells, 0.365 µM; in the experiment on K-562 cells it was over 10 µM.

`CNc1cc(N2C(=O)c3c(c(C)nn3C3CC3)[C@H]2c2ccc(Cl)cc2)nn2c(C)nnc12` [Example 161, (R)-4-(4-chlorophenyl)-1-cyclopropyl-3-methyl-5-(3-methyl-8-(methylamino)-[1,2,4]triazolo[4,3-b]pyridazin-6-yl)-4,5-dihydropyrrolo[3,4-c]pyrazol-6(1H)-one]: the IC50 came to 0.021 µM on His-Brd4(44-477), 0.033 µM on His-Brd2(60-472), 0.024 µM at His-Brd3(20-477) and 0.0401 µM in experiment [1]. The figures for the IC (total growth inhibition) with MV-4-11 cells, with THP-1 cells and in the experiment on K-562 cells were 0.102 µM, 0.152 µM and over 10 µM, respectively.
